According to patent US20250171437A1 (Agios Pharmaceuticals,Inc., priority 2022, published 2025):

Target: T1, human PAH with the R408W mutation (A375 R408W cells) (Homo sapiens, UniProt P00439, R408W)
T1 construct: expressed in transfected cells
T1 sequence (P00439 1-452 R408W): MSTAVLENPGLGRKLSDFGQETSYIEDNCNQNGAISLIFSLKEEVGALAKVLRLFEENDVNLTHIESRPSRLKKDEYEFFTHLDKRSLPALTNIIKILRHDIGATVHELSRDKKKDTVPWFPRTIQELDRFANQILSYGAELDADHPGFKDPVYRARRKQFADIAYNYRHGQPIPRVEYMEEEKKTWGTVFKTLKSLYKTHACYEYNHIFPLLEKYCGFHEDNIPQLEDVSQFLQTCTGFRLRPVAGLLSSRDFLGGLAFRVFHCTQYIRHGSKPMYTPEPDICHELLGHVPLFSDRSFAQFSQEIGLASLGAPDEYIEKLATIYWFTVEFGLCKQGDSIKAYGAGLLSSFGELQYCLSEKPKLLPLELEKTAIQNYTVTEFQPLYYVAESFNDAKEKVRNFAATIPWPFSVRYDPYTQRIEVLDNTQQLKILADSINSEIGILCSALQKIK
Assay: Cell Based Phenylalanine Flux Assay
Conditions: A375 R408W cells; 24 hrs with compound, then 20 μM sepiapterin and 800 μM 13C9,15N-Phenylalanine for 4 hours; 13C-Tyrosine by LC-MS; average where tested multiple times
Summary of the method: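 AC50 is derived from LC-MS of 13C-tyrosine in the media after a 4 h pulse of 800 μM 13C9,15N-phenylalanine plus 20 μM sepiapterin. The A375 R408W PAH cells had received duplicate 10-point, 2-fold compound dilutions (0.5% DMSO) for 24 h beforehand.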

Row | SMILES | AC50 [µM]
1 | O=C(CCc1ncco1)N1CCc2[nH]cnc2[C@@H]1c1nc2cccc(F)c2o1 [Example 388, (R)-1-(4-(7-fluorobenzo[d]oxazol-2-yl)-6,7-dihydro-1H-imidazo[4,5-c]pyridin-5(4H)-yl)-3-(oxazol-2-yl)propan-1-one] | ≥ 5
2 | Cc1ccc2oc([C@@H]3c4nc[nH]c4CCN3C(=O)c3nnc(-c4ccn(C)n4)o3)nc2c1 [Example 389, (S)-(5-(1-methyl-1H-pyrazol-3-yl)-1,3,4-oxadiazol-2-yl)(4-(5-methylbenzo[d]oxazol-2-yl)-6,7-dihydro-1H-imidazo[4,5-c]pyridin-5(4H)-yl)methanone] | ≤ 0.5
3 | Cc1ccc2oc([C@H]3c4nc[nH]c4CCN3C(=O)c3nnc(-c4ccn(C)n4)o3)nc2c1 [Example 390, (R)-(5-(1-methyl-1H-pyrazol-3-yl)-1,3,4-oxadiazol-2-yl)(4-(5-methylbenzo[d]oxazol-2-yl)-6,7-dihydro-1H-imidazo[4,5-c]pyridin-5(4H)-yl)methanone] | 1 to 5
4 | Cc1cccc2nc([C@H]3c4nc[nH]c4CCN3C(=O)c3oc(C(C)(C)O)nc3C(F)F)oc12 [Example 391, (R)-(4-(difluoromethyl)-2-(2-hydroxypropan-2-yl)oxazol-5-yl)(4-(7-methylbenzo[d]oxazol-2-yl)-6,7-dihydro-1H-imidazo[4,5-c]pyridin-5(4H)-yl)methanone] | 1 to 5
5 | Cc1cccc2nc([C@@H]3c4nc[nH]c4CCN3C(=O)c3oc(C(C)(C)O)nc3C(F)F)oc12 [Example 392, (S)-(4-(difluoromethyl)-2-(2-hydroxypropan-2-yl)oxazol-5-yl)(4-(7-methylbenzo[d]oxazol-2-yl)-6,7-dihydro-1H-imidazo[4,5-c]pyridin-5(4H)-yl)methanone] | ≤ 0.5
6 | Cc1cccc2nc([C@@H]3c4nc[nH]c4CCN3C(=O)c3ocnc3C(F)F)oc12 [Example 393, (S)-(4-(difluoromethyl)oxazol-5-yl)(4-(7-methylbenzo[d]oxazol-2-yl)-6,7-dihydro-1H-imidazo[4,5-c]pyridin-5(4H)-yl)methanone] | ≤ 0.5
7 | Cc1cccc2nc([C@H]3c4nc[nH]c4CCN3C(=O)c3ocnc3C(F)F)oc12 [Example 394, (R)-(4-(difluoromethyl)oxazol-5-yl)(4-(7-methylbenzo[d]oxazol-2-yl)-6,7-dihydro-1H-imidazo[4,5-c]pyridin-5(4H)-yl)methanone] | 0.5 to 1
8 | O=C(c1cnn2cc(N3CCC4(CC3)CC4)ccc12)N1CCc2[nH]cnc2[C@H]1c1nc2cccc(F)c2o1 [Example 395, (S)-(6-(6-azaspiro[2.5]octan-6-yl)pyrazolo[1,5-a]pyridin-3-yl)(4-(7-fluorobenzo[d]oxazol-2-yl)-6,7-dihydro-1H-imidazo[4,5-c]pyridin-5(4H)-yl)methanone] | 0.5 to 1
9 | O=C(c1cnn2cc(N3CCC4(CC3)CC4)ccc12)N1CCc2[nH]cnc2[C@@H]1c1nc2cccc(F)c2o1 [Example 396, (R)-(6-(6-azaspiro[2.5]octan-6-yl)pyrazolo[1,5-a]pyridin-3-yl)(4-(7-fluorobenzo[d]oxazol-2-yl)-6,7-dihydro-1H-imidazo[4,5-c]pyridin-5(4H)-yl)methanone] | 1 to 5
10 | O=C(CCc1nccs1)N1CCc2[nH]cnc2[C@H]1c1nc2c(F)cccc2o1 [Example 397, (S)-1-(4-(4-fluorobenzo[d]oxazol-2-yl)-6,7-dihydro-1H-imidazo[4,5-c]pyridin-5(4H)-yl)-3-(thiazol-2-yl)propan-1-one] | 0.5 to 1
11 | O=C(CCc1nccs1)N1CCc2[nH]cnc2[C@@H]1c1nc2c(F)cccc2o1 [Example 398, (R)-1-(4-(4-fluorobenzo[d]oxazol-2-yl)-6,7-dihydro-1H-imidazo[4,5-c]pyridin-5(4H)-yl)-3-(thiazol-2-yl)propan-1-one] | ≥ 5
12 | O=C(c1nnc(-c2cccnc2)o1)N1CCc2[nH]cnc2[C@H]1c1nc2cc(F)ccc2o1 [Example 399, (S)-(4-(5-fluorobenzo[d]oxazol-2-yl)-6,7-dihydro-1H-imidazo[4,5-c]pyridin-5(4H)-yl)(5-(pyridin-3-yl)-1,3,4-oxadiazol-2-yl)methanone] | 0.5 to 1
13 | O=C(c1nnc(-c2cccnc2)o1)N1CCc2[nH]cnc2[C@@H]1c1nc2cc(F)ccc2o1 [Example 400, (R)-(4-(5-fluorobenzo[d]oxazol-2-yl)-6,7-dihydro-1H-imidazo[4,5-c]pyridin-5(4H)-yl)(5-(pyridin-3-yl)-1,3,4-oxadiazol-2-yl)methanone] | 1 to 5

The next lines start with the values.

Row | AC50 [µM] | SMILES
14 | ≤ 0.5 | O=C(c1oc(N2CCC(F)CC2)nc1C(F)F)N1CCc2[nH]cnc2[C@H]1c1nc2cc(F)ccc2o1 [Example 401, (S)-(4-(difluoromethyl)-2-(4-fluoropiperidin-1-yl)oxazol-5-yl)(4-(5-fluorobenzo[d]oxazol-2-yl)-6,7-dihydro-1H-imidazo[4,5-c]pyridin-5(4H)-yl)methanone]
15 | 1 to 5 | O=C(c1oc(N2CCC(F)CC2)nc1C(F)F)N1CCc2[nH]cnc2[C@@H]1c1nc2cc(F)ccc2o1 [Example 402, (R)-(4-(difluoromethyl)-2-(4-fluoropiperidin-1-yl)oxazol-5-yl)(4-(5-fluorobenzo[d]oxazol-2-yl)-6,7-dihydro-1H-imidazo[4,5-c]pyridin-5(4H)-yl)methanone]
16 | 0.5 to 1 | CN1CCN(c2nc(C(F)F)c(C(=O)N3CCc4[nH]cnc4[C@H]3c3nc4cc(F)ccc4o3)o2)CC1 [Example 403, (S)-(4-(difluoromethyl)-2-(4-methylpiperazin-1-yl)oxazol-5-yl)(4-(5-fluorobenzo[d]oxazol-2-yl)-6,7-dihydro-1H-imidazo[4,5-c]pyridin-5(4H)-yl)methanone]
17 | 1 to 5 | CN1CCN(c2nc(C(F)F)c(C(=O)N3CCc4[nH]cnc4[C@@H]3c3nc4cc(F)ccc4o3)o2)CC1 [Example 404, (R)-(4-(difluoromethyl)-2-(4-methylpiperazin-1-yl)oxazol-5-yl)(4-(5-fluorobenzo[d]oxazol-2-yl)-6,7-dihydro-1H-imidazo[4,5-c]pyridin-5(4H)-yl)methanone]
18 | 0.5 to 1 | O=C(c1oc(-c2cncnc2)nc1C(F)F)N1CCc2[nH]cnc2[C@@H]1c1nc2cc(F)ccc2o1 [Example 405, (R)-(4-(difluoromethyl)-2-(pyrimidin-5-yl)oxazol-5-yl)(4-(5-fluorobenzo[d]oxazol-2-yl)-6,7-dihydro-1H-imidazo[4,5-c]pyridin-5(4H)-yl)methanone]
19 | ≤ 0.5 | O=C(c1oc(-c2cncnc2)nc1C(F)F)N1CCc2[nH]cnc2[C@H]1c1nc2cc(F)ccc2o1 [Example 406, (S)-(4-(difluoromethyl)-2-(pyrimidin-5-yl)oxazol-5-yl)(4-(5-fluorobenzo[d]oxazol-2-yl)-6,7-dihydro-1H-imidazo[4,5-c]pyridin-5(4H)-yl)methanone]
20 | ≤ 0.5 | Cc1ccc2oc([C@@H]3c4nc[nH]c4CCN3C(=O)c3oc(C(C)(C)O)nc3Br)nc2c1 [Example 407, (S)-(4-bromo-2-(2-hydroxypropan-2-yl)oxazol-5-yl)(4-(5-methylbenzo[d]oxazol-2-yl)-6,7-dihydro-1H-imidazo[4,5-c]pyridin-5(4H)-yl)methanone]
21 | 0.5 to 1 | Cc1ccc2oc([C@H]3c4nc[nH]c4CCN3C(=O)c3oc(C(C)(C)O)nc3Br)nc2c1 [Example 408, (R)-(4-bromo-2-(2-hydroxypropan-2-yl)oxazol-5-yl)(4-(5-methylbenzo[d]oxazol-2-yl)-6,7-dihydro-1H-imidazo[4,5-c]pyridin-5(4H)-yl)methanone]
22 | 0.5 to 1 | O=C(CCc1cncs1)N1CCc2[nH]cnc2[C@H]1c1nc2cccc(F)c2o1 [Example 409, (S)-1-(4-(7-fluorobenzo[d]oxazol-2-yl)-6,7-dihydro-1H-imidazo[4,5-c]pyridin-5(4H)-yl)-3-(thiazol-5-yl)propan-1-one]
23 | 1 to 5 | O=C(CCc1cncs1)N1CCc2[nH]cnc2[C@@H]1c1nc2cccc(F)c2o1 [Example 410, (R)-1-(4-(7-fluorobenzo[d]oxazol-2-yl)-6,7-dihydro-1H-imidazo[4,5-c]pyridin-5(4H)-yl)-3-(thiazol-5-yl)propan-1-one]
24 | ≤ 0.5 | Cn1ccc(-c2nc(C(F)F)c(C(=O)N3CCc4[nH]cnc4[C@H]3c3nc4cc(F)ccc4o3)o2)n1 [Example 411, (S)-(4-(difluoromethyl)-2-(1-methyl-1H-pyrazol-3-yl)oxazol-5-yl)(4-(5-fluorobenzo[d]oxazol-2-yl)-6,7-dihydro-1H-imidazo[4,5-c]pyridin-5(4H)-yl)methanone]
25 | 0.5 to 1 | Cn1ccc(-c2nc(C(F)F)c(C(=O)N3CCc4[nH]cnc4[C@@H]3c3nc4cc(F)ccc4o3)o2)n1 [Example 412, (R)-(4-(difluoromethyl)-2-(1-methyl-1H-pyrazol-3-yl)oxazol-5-yl)(4-(5-fluorobenzo[d]oxazol-2-yl)-6,7-dihydro-1H-imidazo[4,5-c]pyridin-5(4H)-yl)methanone]
26 | 0.5 to 1 | O=C(c1oc(N2CCOCC2)nc1C(F)F)N1CCc2[nH]cnc2[C@H]1c1nc2cc(F)ccc2o1 [Example 413, (S)-(4-(difluoromethyl)-2-morpholinooxazol-5-yl)(4-(5-fluorobenzo[d]oxazol-2-yl)-6,7-dihydro-1H-imidazo[4,5-c]pyridin-5(4H)-yl)methanone]
